Assay results taken from patent US6368831B1, “Treatment of hyperproliferative disorders” (Childrens Hospital Los Angeles, priority 1998, dated 2002).

System: CHLA-90 neuroblastoma cells
Assay: DIMSCAN cytotoxicity assay, CHLA-90
Assay type: cell-based
Settings: HPR 3-10 μM, BOC-d-fmk 40 μM, +24 hours, P=0.002 at 3 μM, P<0.001 at >3 μM
Description: Cytotoxicity is determined using the DIMSCAN assay system (R. Proffitt et al., Cytometry 24, 204-213 (1996); T. Frgala et al., Proc. AACR, 36, 303 (1995). The system employs digital imaging microscopy to quantify viable cells, which selectively accumulate fluorescein diacetate to become brightly fluorescent. The system is capable of measuring cytotoxicity over a 4-5 log dynamic range by quenching the residual fluorescence of dead and dying cells with eosin Y and quantifying the total fluorescence of viable cells using digital thresholding. Measured fluorescence is directly proportionate to the number of viable cells. A comparison of the total fluorescence of a drug-treated cell population to the fluorescence of a similar number of untreated cells yields a survival fraction. In brief, 5000 to 10,000 SK-N-RA neuroblastoma cells/well are replicate plated into 60 wells of a 96-well tissue culture plate in 0.1 cc media and allowed to attach overnight. Drug(s) are then added in 0.05 cc media to the final concentrations indicated. There are 12 wells treated per drug concentration. Twelve wells receive drug-vector only to the appropriate final concentration and serve as controls for the plate. Cells are incubated for 96-120 hours at 37° C. in 5% CO2. Fluorescein diacetate is then added to each well in 0.05 cc media to a final concentration of 8 microgram/cc. Cells are incubated for a further 15 minutes at 37° C. and 0.03 cc of 0.5% eosin Y is added to each well. Total fluorescence of viable cells is then measured by digital imaging microscopy.
Methods. Cells were added in 100 μL whole medium per well to 96-well microplates for DIMSCAN cytotoxicity assay as previously described. Cell lines used were the neuroblastoma cell lines CHLA-90 and LAN-6. At Time=0, either all-trans-retinoic acid (ATRA), 13-cis-retinoic acid (13-cis-RA) or a combination of retinoid plus safingol at a 3:1 molar ratio were added in 50 μL whole medium. Plates were incubated and assayed for cytotoxicity by DIMSCAN assay at +120 for CHLA-90 cells and+144 hours for LAN-6 cells.
Methods. To determine the manner in which 4-HPR or HPR+safingol induced cell death in neuroblastoma cells, morphological evidence of apoptosis and/or necrosis was assessed in CHLA-90 cells in the presence or absence of a specific as inhibitor of apoptosis, the neural cell-penetrant, pan-caspase enzyme inhibitor, BOC-d-fink (Enzyme Systems Products, Livermore, Calif.). […] CHLA-90 cells were plated in duplicate in whole medium in Lab Tek chamber slides (Nunc, Naperville, Ill.), allowed to attach for 24 hours, and then treated in the presence or absence of BOC-d-fink (40 μM) for one hour prior to treatment with HPR (10 μM). Control cells were treated with vehicle solvents of 0. 1% ethanol (4-HPR) and/or 0.2% DMSO (BOC-d-fink). Morphological features of apoptosis (DNA condensation and/or apoptotic bodies) were visualized in undetached cells at +24 or +48 hours using blue nuclear fluorescence induced by the supravital DNA stain Hoechst 33342 (10 μg/ml for 30 mins at 37° C.), while necrotic cells and advanced apoptotic cells were recognized by red fluorescent staining with propidium iodide (0.5 μM/ml). Red fluorescently-staining cells with condensed nuclear remnants were scored as apoptotic cells. For cells assayed at +48 hours, additional BOC-d-fink (40 μM) or appropriate control vehicle was added at +24 hours. Cells were observed using filters appropriate for each dye sequentially on an Olympus Vanox epifluorescence microscope. Mutiple random fields of cells (of ˜100-500 cells each) were counted and photographed for viable cells, apoptotic cells, and necrotic cells. To further examine cells treated with HPR, cytotoxicity assays were performed on CHLA-90 cells pretreated with or without 40 μM BOC-d-fmk for one hour prior to the addition of 4-HPR (3-10 μM) and assayed at +24 hours by DIMSCAN assay to assess the effect of caspase inhibition on viability. […]

CC1=C(/C=C/C(C)=C/C=C/C(C)=C/C(=O)Nc2ccc(O)cc2)C(C)(C)CCC1 [HPR, all-trans-N-(4-hydroxyphenyl)retinamide]
cytotoxicity in the presence of BOC-d-fmk: significant cytotoxicity
